Test results taken from patent US20120178666A1 (SHIRE LLC, priority 2009, published 2012).

What was measured:
[1] = Prodrug stability in simulated gastric fluid (USP); conditions: 37° C.
Experimental: (§1) The remaining concentrations of the prodrugs were then assayed by HPLC.

[2] = Prodrug stability in simulated intestinal fluid (USP); conditions: 37° C.
Experimental: as §1

Compound | % prodrug remaining following incubation for: 1 h in simulated gastric fluid pH 1.1 [1] | % prodrug remaining following incubation for: 2 h in simulated intestinal fluid pH 6.8 [2]
O=C(O)CC1N=C(NC(=O)Cc2c(Cl)cccc2Cl)NC1=O (centres unmarked) [Compound 4, Guanfacine fumaryl Cyclic adduct] | 97% | 84%
N=C(NC(=O)CC[C@H](NC(=O)[C@@H]1CCC(=O)N1)C(=O)O)NC(=O)Cc1c(Cl)cccc1Cl [Compound 6, (S)-Pyroglutamic acid-(S)-γ-Glutamate (Guanfacine) Amide] | 81% | 98%
CNCC(=O)N[C@@H](CCC(=O)NC(=N)NC(=O)Cc1c(Cl)cccc1Cl)C(=O)O [Compound 7, Sarcosine-(S)-γ-Glutamate-Guanfacine Amide] | 79% | 66%
N=C(NC(=O)Cc1c(Cl)cccc1Cl)NC(=O)NC(C(=O)O)c1ccccc1 (centres unmarked) [Compound 8, Guanfacine Phenylglycine Urea] | 96% | 100%
N=C(NC(=O)CCNC(=O)[C@@H]1CCC(=O)N1)NC(=O)Cc1c(Cl)cccc1Cl [Compound 10, Guanfacine B-Alanine-(S)-Pyroglutamic acid Amide] | 82% | –
CN1CC(=O)N=C1NC(=O)Cc1c(Cl)cccc1Cl [Compound 12, Cyclised Guanfacine Sarcosine Amide] | 48% | 87%
N=C(NC(=O)Cc1c(Cl)cccc1Cl)NC(=O)Oc1ccc(C[C@H](N)C(=O)O)cc1 [Compound 13, (S)-Tyrosine-(Guanfa ine) Carbamate] | 74% | 81%
N=C(NC(=O)Cc1c(Cl)cccc1Cl)NC(=O)O[C@@H]1CN[C@H](C(=O)O)C1 [Compound 14, (S)-4-Hydroxyproline-(Guanfacine) Carbamate] | 70% | –
CC(=O)N[C@@H](COC(=O)NC(=N)NC(=O)Cc1c(Cl)cccc1Cl)C(=O)O [Compound 15, Acetyl-(S)-Serine (Guanfacine) Carbamate] | 83% | –
N=C(NC(=O)Cc1c(Cl)cccc1Cl)NC(=O)OC[C@H](NC(=O)[C@@H]1CCC(=O)N1)C(=O)O [Compound 16, (S)-Pyroglutamic acid-(S)-Serine(Guanfacine) Carbamate] | 78% | 95%
CC(C)[C@@H](N)C(=O)N[C@@H](COC(=O)NC(=N)NC(=O)Cc1c(Cl)cccc1Cl)C(=O)O [Compound 18, (R)-Valine-(S)-Serine(Guanfacine) Carbamate] | 74% | –
C[C@@H](OC(=O)NC(=N)NC(=O)Cc1c(Cl)cccc1Cl)[C@H](NC(=O)[C@@H]1CCC(=O)N1)C(=O)O [Compound 19, (S)-Pyroglutamic acid-(S)-Threonine(Guanfacine) Carbamate] | 92% | –
CC(C)[C@H](N)C(=O)N[C@H](C(=O)O)[C@@H](C)OC(=O)NC(=N)NC(=O)Cc1c(Cl)cccc1Cl [Compound 20, (S)-Valine-(S)-Threonine(Guanfacine) Carbamate] | 79% | 100%
CC(C)[C@@H](N)C(=O)N[C@H](C(=O)O)[C@@H](C)OC(=O)NC(=N)NC(=O)Cc1c(Cl)cccc1Cl [Compound 21, (R)-Valine-(S)-Threonine(Guanfacine) Carbamate] | 83% | –
CC(C)[C@@H](N)C(=O)NCCCC(=O)NC(=N)NC(=O)Cc1c(Cl)cccc1Cl [Compound 22, (R)-Valine aminobutanoyl Guanfacine Amide] | – | 85%
N=C(NC(=O)CCCNC(=O)[C@@H]1CCC(=O)N1)NC(=O)Cc1c(Cl)cccc1Cl [Compound 23, Guanfacine (GABA-(S)-Pyroglutamic acid) Amide] | 98% | 78%
CC(C)[C@H](N)C(=O)NCCOC(=O)NC(=N)NC(=O)Cc1c(Cl)cccc1Cl [Compound 26, Guanfacine ethanolamine-(S)-Valine Carbamate] | 97% | 91%
CC(C)[C@@H](N)C(=O)NCCOC(=O)NC(=N)NC(=O)Cc1c(Cl)cccc1Cl [Compound 27, Guanfacine (ethanolamine-(R)-Valine) Carbamate] | 78% | –
CC(C)[C@H](NC(=O)COC(=O)NC(=N)NC(=O)Cc1c(Cl)cccc1Cl)C(=O)O [Compound 29, Guanfacine (glycolyl-(S)-Valine) Carbamate] | 80% | 99%
CC(C)[C@@H](NC(=O)COC(=O)NC(=N)NC(=O)Cc1c(Cl)cccc1Cl)C(=O)O [Compound 30, Guanfacine (glycolyl-(R)-Valine) Carbamate] | 77% | 160%
CC(C)[C@@H]1N=C(NC(=O)Cc2c(Cl)cccc2Cl)NC1=O [Compound 35, Guanfacine-(S)-Valine Cyclic adduct] | 83% | –
NCCCC[C@@H]1N=C(NC(=O)Cc2c(Cl)cccc2Cl)NC1=O [Compound 36, Guanfacine-(S)-Lysine Cyclic adduct] | 83% | –
C[C@@H]1N=C(NC(=O)Cc2c(Cl)cccc2Cl)NC1=O [Compound 39, Guanfacine-(S)-Alanine Cyclic adduct] | 89% | –
N=C(NC(=O)Cc1c(Cl)cccc1Cl)NC(=O)OCCNC(=O)CN [Compound 49, Guanfacine (ethanolamine Glycine) Carbamate] | 87% | –
C[C@H]1N=C(NC(=O)Cc2c(Cl)cccc2Cl)NC1=O [Compound 51, Guanfacine-(R)-Alanine Cyclic adduct] | 80% | –
N=C(NC(=O)Cc1c(Cl)cccc1Cl)NC(=O)Nc1ccc(C(=O)O)cc1 [Compound 53, Guanfacine PABA Urea] | – | 100%
CC(C)[C@H](N)C(=O)NCCCC(=O)NC(=N)NC(=O)Cc1c(Cl)cccc1Cl [Compound 56, Guanfacine (GABA-(S)-Valine) Amide] | 70% | –
N=C(NC(=O)CCCNC(=O)CC[C@H](N)C(=O)O)NC(=O)Cc1c(Cl)cccc1Cl [Compound 57, Guanfacine (GABA-(S)-Glutamate) Amide] | 81% | –
CNCC(=O)N[C@@H](CCOC(=O)NC(=N)NC(=O)Cc1c(Cl)cccc1Cl)C(=O)O [Compound 66, Sarcosine-(S)-Homoserine (Guanfacine) Carbamate] | 86% | –
